Test results taken from PMC9650711, “Hydroxyl-Rich Hydrophilic Endocytosis-Promoting Peptide with No Positive Charge” (Journal of the American Chemical Society, 2022).

Columns and labels:
Type in all cases: cell-based, human
[1] = tested on: RB-EPP6 uptake in U87 cells; assay: Endocytosis inhibitors treatment, RB-EPP6 uptake by flow cytometry; conditions: inhibitor 1 h, then 500 nM RB-EPP6 1 h; for inhibition of RB-EPP6 uptake: flow cytometry median intensity; for effect on RB-EPP6 uptake (cholesterol extraction / binding): flow cytometry
Protocol: (§1) Flow cytometry experiments
(§2) To perform flow cytometry experiments, a NovoCyte flow cytometer (NovoExpress) was used.
(§3) Quantification of fluorescence intensity was achieved using the Novoxpress software. Fifty thousand cells were analyzed for each condition. A green fluorescent dye used for DNA staining, YOYO, was included in all the flow cytometry experiments, serving as a cell live/dead indicator.
(§4) For the YOYO-only group, the cells were treated with trypsin for 5-10 min and subsequently fixed in a 1.5 mL centrifuge tube using 4% paraformaldehyde at room temperature for 15 min. Then, fixed cells were washed with PBS once and were permeabilized using 90% MeOH on ice for 15 min. For all conditions, cells were incubated with YOYO in a phenol-free medium for half an hour, and then were centrifuged to remove the YOYO solution and resuspended in a fresh phenol-free medium before performing flow cytometry.
For general incubation, 300 k U87 cells were seeded in a 35×10 mm culture dish and incubated overnight under normal culturing conditions. Stock solutions of Dye-EPPs were made in DMSO to reach a concentration of 500 μM. Fresh cell culture medium was used to dilute the stock solution to 500 nM. Cells were incubated with RB-EPPs for desired time periods, followed by a one-time wash with phenol-free fresh culture medium before measurements. […]
(§5) Endocytosis inhibitors treatment
U87 cells were incubated with different endocytosis inhibitors for 1 h. Then, the media was replaced with fresh media containing 500 nM of RB-EPP6. After 1 h, a trypsin-EDTA solution (0.05%, Sigma) was added to detach the cells. The cells were collected by centrifugation and resuspended in phenol-free media. […]
Stock solutions of trackers for mitochondria, lysosome, and ER were diluted with cell culture medium into 100 nM, 500 nM, and 4 μM, respectively. RB-EPP6 was added to each working solution at 500 nM. U87 cells were incubated with the trackers and RB-EPP6 for 1 h and then washed once before confocal imaging.

[2] = tested on: U87 cells; assay: Uptake and nuclear accumulation of TO- and EB-labeled EPPs, confocal; conditions: confocal imaging, TO conjugates 500 nM, EB-EPP6 2 ug/mL or 6 hr
Protocol: Confocal imaging experiments
To image the cells, a Zeiss 880 inverted confocal laser scanning microscope (Carl Zeiss, Germany) was used. Image acquisition and analyses were carried out using the manufacturer’s software (ZEN, Carl Zeiss). Quantification of fluorescence intensity in single cells was performed using Fiji […]
as §1, §2, §3
[…]
2 μL of RB-EPP (in DMSO) was added to the solution at a concentration of 500 μM. […] Samples were collected from both phases and quantified by Analytical HPLC separately. […]

[3] = tested on: RB-EPP6 uptake in U87 cells; assay: FIBCD1 competition assay with CSA, RB-EPP6 uptake by flow cytometry; conditions: 500 nM RB-EPP6 together with CSA, 1 h
Protocol: experiment. Poly-A selective RNA-seq libraries were prepared using the NEB NextUltra II kit (New England Biolabs) and sequenced on an Illumina NextSeq500 with 2×75 pair-end reads. The obtained sequencing data was preprocessed using fastp, aligned using STAR, and counted using featureCounts. Differentially expressed genes were identified using DESeq2. The sequence data and analysis reports are deposited in the GEO repository (Accession # GSE202764) […]
U87 cells were incubated with 500 nM RB-EPP6 and YOYO, together with chondroitin sulfate (CSA) in complete media. After 1 h, trypsin was used to detach the cells. Cell pellets were collected by centrifugation. Fresh phenol-free medium was added to each condition. […]
Human FIBCD1 cDNA with an MYC-DDK tag was ordered from Origene (#RC206180) and was expressed using the mammalian expression system kit ExpiCHOTM (#A29133) as generally described by MAN0014337. […] The obtained full-length FIBCD1 was quantified using BCA.
Fluorescence polarization (FP) assay
Solutions of RB-EPPs (in 1% BSA/PBST) were added to different concentrations of full-length FIBCD1 (in 1% BSA/PBST). […] The solutions were incubated at room temperature for 30 minutes on an orbital shaker, and the fluorescence polarization values were quantified using a BioTek Synergy H1 plate reader, with an FP filter set (excitation 530/25, emission 590/35). […]

[4] = tested on: U87 cells; assay: Resazurin assay, cell viability
Protocol: Time-dependent uptake experiment
U87 cells were incubated with RB-EPP6 at 500 nM for 1 h. After washing with fresh medium once, the cells were kept in the 5% CO2 incubator at 37 °C for desired time durations before […]
Temperature-dependent uptake experiment
U87 cells were kept in a 4 °C cold room for half an hour. After that, cells were incubated with RB-EPP 6 at 500 nM at 4 °C. Cells in the control group were maintained and incubated at 37 °C. After 1 h, cells were washed with fresh medium once before confocal imaging.
All the RB-EPPs were diluted in PBS to 100 μM. 700 μL of the testing peptides were added to the apical chamber of a Corning BioCoat Pre-coated PAMPA Plate. 200 μL PBS was added to the basolateral chamber. The plate was kept at 37 °C with 5% CO2 for 5 h, after which 80 μL samples were collected from each chamber for RB fluorescence intensity reading using the Synergy H1 […]
as §5
U87 cells were incubated with different endocytosis inhibitors for 1 h. Then, the media was replaced with fresh media containing 500 nM of RB-EPP6. After 1 h, a trypsin-EDTA solution (0.05%, Sigma) was added to detach the cells. […]
Resazurin was dissolved in DI water at a stock concentration of 6 mg/mL. […] The fluorescence intensity of the samples was recorded by a plate reader at 532 nm excitation and 585 nm emission wavelengths. […]

[5] = tested on: RB-EPP6 uptake in U87 cells; assay: Heparin-binding assay, RB-EPP6 uptake by flow cytometry; conditions: heparin sulfate 10-200 μg/mL 30 min, then with 500 nM RB-EPP6 1 h

O=C(N/N=C/c1ccc(O)c(O)c1)c1cc2ccccc2cc1O [Dynasore]
inhibition of RB-EPP6 uptake [1]: 86%

CC[n+]1c(-c2ccccc2)c2cc(N)ccc2c2ccc(N)cc21 [EB, ethidium bromide]
uptake / intracellular localisation [2]: did not show any uptake

O=C1NC(=NS(=O)(=O)c2cccc3ccccc23)S/C1=C\c1ccc(Br)cc1 [Pitstop 2]
inhibition of RB-EPP6 uptake [1]: 9%

C=C1[C@@H](C)[C@H]2[C@H](Cc3ccccc3)NC(=O)[C@]23[C@H](OC(C)=O)/C=C/[C@@](C)(O)C(=O)[C@@H](C)C/C=C/[C@H]3[C@@H]1O [cytochalasin D]
inhibition of RB-EPP6 uptake [1]: 38%

CCCCC[C@@H](O)[C@H]1C(=O)O[C@H](C)[C@@H](O)/C=C/C=C/C=C/C=C/C=C(\C)[C@@H](O)C[C@H](O)C[C@H](O)C[C@H](O)C[C@H](O)C[C@H](O)C[C@@H]1O [filipin]
effect on RB-EPP6 uptake (cholesterol extraction / binding) [1]: did not inhibit

c1ccc2c(c1)Nc1ccccc1S2 [phenothiazine]
inhibition of RB-EPP6 uptake [1]: no inhibition

COC[C@H]1OC(=O)c2coc3c2[C@@]1(C)C1=C(C3=O)[C@@H]2CCC(=O)[C@@]2(C)C[C@H]1OC(C)=O [wortmannin]
inhibition of RB-EPP6 uptake [1]: 48%

chondroitin sulfate A [CSA]
effect on RB-EPP6 uptake (competitive uptake) [3]: inhibit RB-EPP6 uptake in a concentration-dependent manner | effect on cell viability [4]: without affecting cell viability

heparin sulfate
effect on RB-EPP6 uptake [5]: did not affect

methyl-β-cyclodextrin
effect on RB-EPP6 uptake (cholesterol extraction / binding) [1]: did not inhibit
